Patent US7902354B2, “Lapachone compounds and methods of use thereof” (ArQule, Inc., priority 2006, dated 2011)
Counter-ions that a name gives are not always drawn.

What was measured:
[1] = test system: DLD-1 human colon carcinoma cells; assay: MTS cell viability assay, DLD-1 human colon carcinoma cells; type: cell-based; settings: DLD-1, 4 h compound incubation, MTS, read-out: IC50 Values, Cancerous Cells, Colon DLD-1
[2] = test system: A549 human lung carcinoma cells; assay: MTS cell viability assay, A549 human lung carcinoma cells; type: cell-based; settings: A549, 4 h compound incubation, MTS, read-out: IC50 Values, Cancerous Cells, Lung A549
[3] = test system: K-562 human leukemia cells; assay: MTS cell viability assay, K-562 human leukemia cells; type: cell-based; settings: K562, K-562, 4 h compound incubation, MTS, read-out: IC50 Values, Cancerous Cells, Leukemia K-562
[4] = test system: PACA-2 human pancreatic carcinoma cells; assay: MTS cell viability assay, PACA-2 human pancreatic carcinoma cells; type: cell-based; settings: PACA-2, 4 h compound incubation, MTS, read-out: IC50 Values, Cancerous Cells, Pancreas PACA-2
[5] = test system: NCM-460 normal colon epithelial cells; assay: MTS cell viability assay, NCM-460 normal colon epithelial cells; type: cell-based; settings: for IC50: Homo sapiens, NCM460, NCM-460, 4 h compound incubation, MTS, read-out: IC50 Values, Normal Cells, Colon NCM-460; for Fold Selectivity (NCM-460/DLD1): ratio of IC50 NCM-460 / DLD1
[6] = test system: DU-145 human prostate carcinoma cells; assay: MTS cell viability assay, DU-145 human prostate carcinoma cells; type: cell-based; settings: DU-145, 4 h compound incubation, MTS, read-out: IC50 Values, Cancerous Cells, Prostate DU-145

| SMILES | melting point [°C] | IC50 [1] [µM] | IC50 [2] [µM] | IC50 [3] [µM] | IC50 [4] [µM] | IC50 [6] [µM] | IC50 [5] [µM] | Fold Selectivity (NCM-460/DLD1) [5] |
| --- | --- | --- | --- | --- | --- | --- | --- | --- |
| COc1ccc2c(c1)C1=C(SCC3(CCN(C(=O)Oc4cccc(C(F)(F)F)c4)CC3)O1)C(=O)C2=O | 88 to 89 |  |  |  |  |  |  |  |
| CCCC(C)N1CCC2(CC1)CSC1=C(O2)c2ccccc2C(=O)C1=O (stereo not shown) | 109 to 111 |  |  |  |  |  |  |  |
| CC(O)(Cc1ccccc1)CN1CCC2(CC1)CSC1=C(O2)c2ccccc2C(=O)C1=O (stereo not shown) | 186 to 187 |  |  |  |  |  |  |  |
| O=C1C(=O)c2ccc(Br)cc2C2=C1SCC1(CCN(C[C@H](O)COc3ccc(Cl)cc3)CC1)O2 | 150 to 152 |  |  |  |  |  |  |  |
| CC(C)(C)c1ccc(OC[C@@H](O)CN2CCC3(CC2)CSC2=C(O3)c3cc(Cl)ccc3C(=O)C2=O)cc1 | 94 to 97 |  |  |  |  |  |  |  |
| CC(C)(C)c1ccc(OC[C@@H](O)CN2CCCC3(CSC4=C(O3)c3ccccc3C(=O)C4=O)C2)cc1 (stereo partly shown) | 90 to 92 |  |  |  |  |  |  |  |
| COc1ccc2c(c1)C(=O)C(=O)C1=C2OC2(CCN(C[C@H](O)COc3ccc(C(C)(C)C)cc3)CC2)CS1 | 188 to 190 |  |  |  |  |  |  |  |
| COc1ccc2c(c1)C1=C(SCC3(CCN(C[C@H](O)COc4ccc(F)cc4)CC3)O1)C(=O)C2=O | 80 to 81 |  |  |  |  |  |  |  |
| O=C1C(=O)c2ccc(-c3ccccc3)cc2C2=C1SCC1(CCN(C[C@@H](O)COc3ccc(Cl)cc3)CC1)O2 | 111 to 112 |  |  |  |  |  |  |  |
| O=C1C(=O)c2ccccc2C2=C1SCC1(CCN(C[C@H](O)COc3ccc(C(=O)OCc4ccccc4)cc3)CC1)O2 | 83 to 84 |  |  |  |  |  |  |  |
| O=C1C(=O)c2ccc(F)cc2C2=C1SCC1(CCN(C[C@@H](O)Cc3ccccc3)CC1)O2 | 77 to 79 |  |  |  |  |  |  |  |
| O=C1C(=O)c2ccccc2C2=C1SCC1(CCN(C(=O)NS(=O)(=O)c3ccc(F)cc3)CC1)O2 | 173 to 180 |  |  |  |  |  |  |  |
| O=C1C(=O)c2ccccc2C2=C1SCC1(CCN(C(=O)NS(=O)(=O)c3ccccc3)CC1)O2 | 155 to 165 |  |  |  |  |  |  |  |
| CC(C)(C)OC(=O)N1CCC2(CC1)CSC1=C(O2)c2cc(-c3ccc(C(F)(F)F)cc3)ccc2C(=O)C1=O | 238 to 240 |  |  |  |  |  |  |  |
| CC(C)(C)OC(=O)N1CCC2(CC1)CSC1=C(O2)c2cc(-c3ccccc3C(F)(F)F)ccc2C(=O)C1=O | 223 to 225 |  |  |  |  |  |  |  |
| O=C1C(=O)c2ccccc2C2=C1SCC1(CCC(c3ccccc3)CC1)O2 (stereo not shown) | 183 to 187 |  |  |  |  |  |  |  |
| O=C1C(=O)c2ccccc2C2=C1SCC1(CCC3(CC1)OCCO3)O2 | 251 to 252 |  |  |  |  |  |  |  |
| Cl.Cl.O=C1C(=O)c2ccc(N3CCOCC3)cc2C2=C1SCC1(CCNCC1)O2 | > 300 |  |  |  |  |  |  |  |
| O=C1C(=O)c2ccc(-c3ccccc3C(F)(F)F)cc2C2=C1SCC1(CCNCC1)O2 | 125 to 127 |  |  |  |  |  |  |  |
| CC(C)(C)OC(=O)N1CCC(CC(=O)N2CCC3(CC2)CSC2=C(O3)c3ccccc3C(=O)C2=O)CC1 | 110 to 113 |  |  |  |  |  |  |  |
| O=C1C(=O)c2ccccc2C2=C1SCC1(CCN(C(=O)c3cn4c5c(cccc35)CCC4)CC1)O2 | 265 to 267 |  |  |  |  |  |  |  |
| CN(C)S(=O)(=O)N1CCC2(CC1)CSC1=C(O2)c2ccccc2C(=O)C1=O | 215 to 218 |  |  |  |  |  |  |  |
| O=C(NC1CCC2(CC1)CSC1=C(O2)c2ccccc2C(=O)C1=O)Oc1cccc(C(F)(F)F)c1 (stereo not shown) (as salt: hydrochloride) | 198 to 199 |  |  |  |  |  |  |  |
| O=C1C(=O)c2ccccc2C2=C1SCC1(CCC(NC(=O)c3cccc(C(F)(F)F)c3)CC1)O2 (stereo not shown) (as salt: hydrochloride) | 266 to 267 |  |  |  |  |  |  |  |
| COc1ccc2c(c1)C1=C(SCC3(CCNCC3)O1)C(=O)C2=O [Compound 20, 9-methoxyspiro[naphtho[1,2-b][1,4]oxathiine-2,4′-piperidine]-5,6-dione] |  | 49.5 | > 100 | 48 | 27.5 | 60.5 | 61.7 | 1.2 |
| Cc1noc(C)c1C(=O)N1CCC2(CC1)CSC1=C(O2)c2ccccc2C(=O)C1=O [Compound 40, 1′-[(3,5-dimethylisoxazol-4-yl)carbonyl]spiro[naphtho[1,2-b][1,4]oxathiine-2,4′-piperidine]-5,6-dione] |  | 4.09 | 15.5 | 3.92 | 8.39 | 14.4 | 10.2 | 2.5 |
| COC(=O)C(=O)N1CCC2(CC1)CSC1=C(O2)c2ccccc2C(=O)C1=O [Compound 52, methyl (5,6-dioxo-5,6-dihydro-1′H-spiro[naphtho[1,2-b][1,4]oxathiine-2,4′-piperidine]-1′-yl)(oxo)acetate] |  | 4.15 | 14.4 | 2.71 | 3.92 | 4.49 | 10.1 | 2.4 |

Continued, in another order:

| melting point [°C] | IC50 [1] [µM] | IC50 [2] [µM] | IC50 [3] [µM] | IC50 [4] [µM] | IC50 [6] [µM] | SMILES | IC50 [5] [µM] | Fold Selectivity (NCM-460/DLD1) [5] |
| --- | --- | --- | --- | --- | --- | --- | --- | --- |
| 120 to 125 |  |  |  |  |  | O=C1C(=O)c2ccccc2C2=C1SCC1(CCN(C(=O)Cc3ccc(Cl)cc3)CC1)O2 |  |  |
| 110 to 115 |  |  |  |  |  | O=C1C(=O)c2ccccc2C2=C1SCC1(CCN(C(=O)/C=C/c3ccccc3Cl)CC1)O2 |  |  |
| 240 to 241 |  |  |  |  |  | O=C1C(=O)c2ccc(-c3ccccc3)cc2C2=C1SCC1(CCN(C(=O)c3cccc(Cl)c3)CC1)O2 |  |  |
|  | 1.45 | 7.69 | 1.87 | 1.52 | 3.86 | O=C1C(=O)c2ccccc2C2=C1SCC1(CCN(C(=O)c3ccco3)CC1)O2 [Compound 39, 1′-(2-furoyl)spiro[naphtho[1,2-b][1,4]oxathiine-2,4′-piperidine]-5,6-dione] | 6.35 | 4.4 |
|  | 1.58 | 4.84 | 1.44 | 1.47 | 3.1 | Cc1cc(C(=O)N2CCC3(CC2)CSC2=C(O3)c3ccccc3C(=O)C2=O)c(C)o1 [Compound 41, 1′-(2,5-dimethyl-3-furoyl)spiro[naphtho[1,2-b][1,4]oxathiine-2,4′-piperidine]-5,6-dione] | 5.8 | 3.7 |
|  | 8.95 | 43 | 5.64 | 5.12 | 12.7 | Cc1cc(C(=O)N2CCC3(CC2)CSC2=C(O3)c3ccccc3C(=O)C2=O)n(C)n1 [Compound 42, 1′-[(1,3-dimethyl-1H-pyrazol-5-yl)carbonyl]spiro[naphtho[1,2-b][1,4]oxathiine-2,4′-piperidine]-5,6-dione] | 12.6 | 1.4 |
|  | 2.26 | 9.96 | 2.77 | 2.14 | 4.12 | O=C1C(=O)c2ccccc2C2=C1SCC1(CCN(C(=O)c3ccoc3)CC1)O2 [Compound 43, 1′-(3-furoyl)spiro[naphtho[1,2-b][1,4]oxathiine-2,4′-piperidine]-5,6-dione] | 9.44 | 4.2 |
|  | 4 | 19.7 | 3.95 | 4.49 | 4.3 | Cc1cc(C(=O)N2CCC3(CC2)CSC2=C(O3)c3ccccc3C(=O)C2=O)nn1C [Compound 45, 1′-[(1,5-dimethyl-1H-pyrazol-3-yl)carbonyl]spiro[naphtho[1,2-b][1,4]oxathiine-2,4′-piperidine]-5,6-dione] | 9.84 | 2.5 |
|  | 5.26 | > 100 | 9.61 | 4.24 | 5.03 | CN(C)c1cccc(C(=O)N2CCC3(CC2)CSC2=C(O3)c3ccccc3C(=O)C2=O)c1 [Compound 46, 1′-[3-(dimethylamino)benzoyl]spiro[naphtho[1,2-b][1,4]oxathiine-2,4′-piperidine]-5,6-dione] | 28.6 | 5.4 |
|  | 1.55 | 11.8 | 1.5 | 2.37 | 4.12 | O=C1C(=O)c2ccccc2C2=C1SCC1(CCN(C(=O)CSc3ccccc3)CC1)O2 [Compound 48, 1′-[(phenylthio)acetyl]spiro[naphtho[1,2-b][1,4]oxathiine-2,4′-piperidine]-5,6-dione] | 5.7 | 3.7 |
|  | 2.87 | 5.58 | 1.8 | 2.39 | 4.11 | O=C1C(=O)c2ccccc2C2=C1SCC1(CCN(C(=O)c3ccccc3I)CC1)O2 [Compound 49, 1′-(2-iodobenzoyl)spiro[naphtho[1,2-b][1,4]oxathiine-2,4′-piperidine]-5,6-dione] | 7.72 | 2.7 |
|  | 1.54 | 5.41 | 1.44 | 1.42 | 3.55 | O=C1C(=O)c2ccccc2C2=C1SCC1(CCN(C(=O)C(Cl)c3ccccc3)CC1)O2 (stereo not shown) [Compound 50, 1′-[chloro(phenyl)acetyl]spiro[naphtho[1,2-b][1,4]oxathiine-2,4′-piperidine]-5,6-dione] | 7.14 | 4.6 |
|  | 11.6 | > 100 | 10.3 | 4.28 | 5.52 | O=C1C(=O)c2ccccc2C2=C1SCC1(CCN(C(=O)c3cc4ccccc4s3)CC1)O2 [Compound 51, 1′-(1-benzothien-2-ylcarbonyl)spiro[naphtho[1,2-b][1,4]oxathiine-2,4′-piperidine]-5,6-dione] | 33 | 2.8 |
